Results published in patent US9278968B2, “Imidazopyridine compounds” (ASTELLAS PHARMA INC., priority 2012, dated 2016).

Target: human purified sGC (heterodimer of sGCα1 and sGCβ1) (Homo sapiens (Human), UniProt Q02108+Q02153)
Experiment: sGC activation test (cGMP produced, HTRF)
Assay type: biochemical
Settings: maximum activity of Preparation Example 200 compound (maximum 100 μM) taken as 100%; with SNP; read-out: EC50 (concentration giving 50% of maximum activity)
Description: The activity of sGC was evaluated by measuring the amount of cGMP produced by human purified sGC.
Using an sGCα 1 gene (NCBI accession No. BC028384.2) and an sGCβ1 gene (NCBI accession No. BC047620.1), an N-terminal FLAG tag-fused sGCα1 and an sGCβ1 expression baculovirus were prepared. These viruses were transfected into insect cells Sf9 (Cat. No. 11496-015, Gibco) to express a protein. From the cell lysates of the insect cells, heterodimers of the N-terminal FLAG tag-fused sGCα1 and sGCβ1 were purified with an M2 Affinity Gel (Sigma-Aldrich, Inc.) to obtain a human sGC.
An Example compound was dissolved in DMSO and diluted 20-fold with ultrapure water. 2 μL of the diluted Example compound solution (maximum concentration of 100 μM), 2 μL of a substrate solution [0.5 μM triethanolamine buffer solution, 0.03 μM dithiothreitol, 0.01 μM GTP, 0.04 μM MgCl2, and 0.03 μM sodium nitroprusside (SNP)], and 6 μL of a human enzyme suspension were added to 384-well plates (manufactured by Greiner Bio-One), and incubated at room temperature for one hour. The measurement of the amount of cGMP was carried out, using an HTRF reagent (Cisbio).
The sGC activation action of the Example compound was calculated as an Example compound concentration which gives 50% of a maximum activity (EC50), in which the maximum activity by the addition of a compound shown in Preparation Example 200, 8-(cyclohexylmethoxy)-N-[(1R)-2-hydroxy-1-phenylethyl]-2-methylimidazo[1,2-a]pyridine-3-carboxamide hydrochloride (maximum 100 μM), is taken as 100%. Further, the maximum activity of sGC with the addition of 8-(cyclohexylmethoxy)-N-[(1R)-2-hydroxy-1-phenylethyl]-2-methylimidazo[1,2-a]pyridine-3-carboxamide hydrochloride is 10-fold or more relative to the sGC activation without the addition of the compound, and it is recognized that the compound has a good sGC activating action. […] The test results of some Example compounds that are the compounds of the formula (I) of the present invention are shown below. Further, in Tables, Ex. represents Example number.

human purified sGC (heterodimer of sGCα1 and sGCβ1), sequence (Q02108 whole entry): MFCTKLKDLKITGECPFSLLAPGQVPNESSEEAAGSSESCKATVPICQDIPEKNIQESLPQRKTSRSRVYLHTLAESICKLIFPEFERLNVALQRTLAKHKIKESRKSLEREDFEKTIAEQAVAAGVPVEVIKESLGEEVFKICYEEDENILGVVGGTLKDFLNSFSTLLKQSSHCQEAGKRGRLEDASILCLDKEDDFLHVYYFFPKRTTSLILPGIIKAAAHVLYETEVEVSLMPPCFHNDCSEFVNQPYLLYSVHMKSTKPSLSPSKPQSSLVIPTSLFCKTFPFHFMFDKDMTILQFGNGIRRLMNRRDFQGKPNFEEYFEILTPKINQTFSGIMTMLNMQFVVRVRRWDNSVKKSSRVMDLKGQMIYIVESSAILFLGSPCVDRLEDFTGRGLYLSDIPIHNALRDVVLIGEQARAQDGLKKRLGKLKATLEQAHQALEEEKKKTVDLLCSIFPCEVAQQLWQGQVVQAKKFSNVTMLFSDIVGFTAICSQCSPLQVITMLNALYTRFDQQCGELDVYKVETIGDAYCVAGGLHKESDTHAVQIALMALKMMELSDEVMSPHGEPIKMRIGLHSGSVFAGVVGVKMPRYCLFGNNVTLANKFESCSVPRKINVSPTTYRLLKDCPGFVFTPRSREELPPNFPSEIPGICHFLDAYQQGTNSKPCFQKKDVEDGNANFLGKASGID
human purified sGC (heterodimer of sGCα1 and sGCβ1), sequence (Q02153 whole entry): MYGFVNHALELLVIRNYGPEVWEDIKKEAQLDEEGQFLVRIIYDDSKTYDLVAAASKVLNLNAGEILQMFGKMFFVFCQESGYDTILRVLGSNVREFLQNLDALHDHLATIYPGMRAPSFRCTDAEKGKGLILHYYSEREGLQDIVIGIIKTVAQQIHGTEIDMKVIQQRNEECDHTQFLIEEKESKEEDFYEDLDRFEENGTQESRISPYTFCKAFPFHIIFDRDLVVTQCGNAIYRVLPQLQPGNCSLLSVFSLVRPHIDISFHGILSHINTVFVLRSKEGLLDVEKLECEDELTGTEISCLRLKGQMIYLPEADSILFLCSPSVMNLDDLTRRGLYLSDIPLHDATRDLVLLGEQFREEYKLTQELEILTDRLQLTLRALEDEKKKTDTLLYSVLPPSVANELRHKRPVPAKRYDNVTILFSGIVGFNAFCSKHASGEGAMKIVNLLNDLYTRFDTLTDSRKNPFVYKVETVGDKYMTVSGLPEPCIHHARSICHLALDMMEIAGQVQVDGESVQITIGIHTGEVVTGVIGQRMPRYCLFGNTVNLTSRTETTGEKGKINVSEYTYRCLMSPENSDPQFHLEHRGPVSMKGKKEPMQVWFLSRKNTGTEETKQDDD

Row | SMILES | EC50
1 | Cc1nc2c(OCc3c(F)cccc3F)cccn2c1C(=O)N[C@]1(c2ccccc2)CC[C@@H](O)[C@H]1O (racemic) [Example 27] | 12 µM
2 | Cc1nc2c(OCc3c(F)cccc3F)cccn2c1C(=O)N[C@]1(c2ccccc2)CC[C@H](O)[C@H]1O (racemic) [Example 28] | 13 µM
3 | Cc1nc2c(OCc3c(F)cccc3F)cccn2c1C(=O)NCc1cccnc1[C@@H](O)[C@@H](C)O (racemic) [Example 89] | 11 µM
4 | Cc1nc2c(OCc3c(F)cccc3F)cccn2c1C(=O)NCc1ccncc1[C@@H](O)[C@@H](C)O (racemic) [Example 90] | 9.8 µM
5 | Cc1nc2c(OCc3c(F)cccc3F)cccn2c1C(=O)N[C@@H](C)c1ccccc1[C@@H](O)CO (stereo in doubt) [Example 59] | 1.9 µM
6 | Cc1nc2c(OCC3CCCCC3)cccn2c1C(=O)N[C@@](C)(CO)c1cccc(C(=O)O)c1 [Example 3, 3-[(2R)-2-({ [8-(cyclohexylmethoxy)-2-methylimidazo[1,2-a]pyridin-3-yl]carbonyl}amino)-1-hydroxypropan-2-yl]benzoic acid] | 0.72 µM
7 | Cc1nc2c(OCc3c(F)cccc3F)cccn2c1C(=O)NC(C)(CO)c1ccc(CO)cc1 (centres unmarked) [Example 4, 8-[(2,6-difluorobenzyl)oxy]-N-{1-hydroxy-2-[4-(hydroxymethyl)phenyl]propan-2-yl}-2-methylimidazo[1,2-a]pyridine-3-carboxamide] | 1.4 µM
8 | Cc1nc2c(OCc3c(F)cccc3F)cccn2c1C(=O)NCc1ccccc1C(O)CO (centres unmarked) [Example 5, 8-[(2,6-difluorobenzyl)oxy]-N-[2-(1,2-dihydroxyethyl)benzyl]-2-methylimidazo[1,2-a]pyridine-3-carboxamide] | 6.4 µM
9 | Cc1nc2c(OCc3c(F)cccc3F)cccn2c1C(=O)N[C@@](C)(CO)c1cccc(C(N)=O)c1 [Example 12] | 0.78 µM
10 | Cc1nc2c(OCC3CCCCC3)cccn2c1C(=O)N[C@@](C)(CO)c1cccc(C(N)=O)c1 [Example 13] | 0.84 µM
11 | Cc1nc2c(OCc3c(F)cccc3F)cccn2c1C(=O)NC(C)(CO)c1ncccn1 (centres unmarked) [Example 14] | 4.4 µM
12 | Cc1nc2c(OCc3ccccc3F)cccn2c1C(=O)N[C@@](C)(CO)c1cccc(CO)c1 [Example 15] | 2.8 µM
13 | Cc1cnc([C@H](CO)NC(=O)c2c(C)nc3c(OCc4c(F)cccc4F)cccn23)s1 [Example 16] | 2.1 µM
14 | Cc1nc2c(OCc3c(F)cccc3F)cccn2c1C(=O)N[C@@](C)(CO)c1nc(CO)cs1 [Example 21] | 4 µM
15 | Cc1nc2c(OCc3ncccc3F)cccn2c1C(=O)N[C@@](C)(CO)c1ccccc1F [Example 23] | 9.8 µM
16 | Cc1ncc([C@H](CO)NC(=O)c2c(C)nc3c(OCc4c(F)cccc4F)cccn23)s1 [Example 24] | 3.6 µM
17 | Cc1nc2c(OCc3c(F)cccc3F)cccn2c1C(=O)N[C@@H](CO)c1nnn(C)n1 [Example 26] | 24 µM
18 | Cc1nc2c(OCC3CCCCC3)cccn2c1C(=O)N[C@@H](CO)c1nnnn1C [Example 29] | 17 µM
19 | Cc1nc2c(OCc3c(F)cccc3F)cccn2c1C(=O)NCc1ccccc1[C@H](O)[C@H](C)O [Example 30] | 5.6 µM
20 | Cc1nc2c(OCc3c(F)cccc3F)cccn2c1C(=O)NCc1ccccc1[C@@H](O)[C@H](C)O [Example 32] | 8.2 µM
21 | Cc1nc2c(OCc3c(F)cccc3F)cccn2c1C(=O)NCc1ccccc1[C@H](O)[C@@H](C)O [Example 33] | 7.4 µM
22 | Cc1nc2c(OCC3CCCCC3)cccn2c1C(=O)N[C@@H](CO)c1nnn(C)n1 [Example 34] | 11 µM
23 | Cc1nnc([C@H](CO)NC(=O)c2c(C)nc3c(OCc4c(F)cccc4F)cccn23)o1 [Example 42] | 33 µM
24 | Cc1nnc([C@H](CO)NC(=O)c2c(C)nc3c(OCC4CCCCC4)cccn23)o1 [Example 43] | 14 µM
25 | CCc1nnc([C@H](CO)NC(=O)c2c(C)nc3c(OCc4c(F)cccc4F)cccn23)o1 [Example 44] | 16 µM
26 | CCc1nnc([C@H](CO)NC(=O)c2c(C)nc3c(OCC4CCCCC4)cccn23)o1 [Example 45] | 9.1 µM
